Laboratory results taken from patent publication US8765735B2, “Isoxazolines as inhibitors of fatty acid amide hydrolase” (Infinity Pharmaceuticals, Inc., priority 2009, dated 2014).

Molecular target: T1, human FAAH (Homo sapiens, UniProt O00519)
T1 construct: host or cells: COS-7 cells, transient transfection; 13,000 g membrane fraction solubilised in 1% Triton X-100
T1 sequence (O00519 1-579): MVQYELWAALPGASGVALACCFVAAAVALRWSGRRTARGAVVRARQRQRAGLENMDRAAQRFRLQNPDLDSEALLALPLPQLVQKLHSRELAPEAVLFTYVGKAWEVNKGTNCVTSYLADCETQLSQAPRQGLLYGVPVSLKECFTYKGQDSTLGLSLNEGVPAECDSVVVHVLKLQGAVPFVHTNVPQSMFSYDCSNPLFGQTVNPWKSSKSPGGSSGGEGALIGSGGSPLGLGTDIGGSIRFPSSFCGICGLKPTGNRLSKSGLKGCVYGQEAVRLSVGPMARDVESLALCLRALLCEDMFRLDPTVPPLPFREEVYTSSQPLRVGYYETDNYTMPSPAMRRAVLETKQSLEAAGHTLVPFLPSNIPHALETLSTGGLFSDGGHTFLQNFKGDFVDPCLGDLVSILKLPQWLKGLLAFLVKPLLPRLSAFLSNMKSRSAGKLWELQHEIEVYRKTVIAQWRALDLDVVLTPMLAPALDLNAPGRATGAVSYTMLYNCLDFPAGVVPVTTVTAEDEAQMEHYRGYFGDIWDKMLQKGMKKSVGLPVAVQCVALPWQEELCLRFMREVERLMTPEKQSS
Experiment: Inhibition of human FAAH (fluorescence assay, AMC arachidonoyl amide substrate)
Assay type: biochemical
Settings: solubilized human FAAH from transfected COS-7 cells; 30 min preincubation; 20 μM AMC-arachidonoyl amide; 4 h at room temperature
Protocol: Human FAAH Preparation: COS-7 cells were split the day before, 1:5 into 150 mm×25 mm cell culture dishes (Corning Inc., Cat. No. 430599). Transient transfection took place at 30-40% confluency according to FuGENE 6 Transfection Reagent (Roche, Cat. No. 11814 443 001).
Transfection Procedure: The FuGENE transfection 6 reagent (45 uL) was added to 1410 μL of media (DMEM, serum free without pen/strep) in a 15 mL conical tube and incubated at room temp for 5 minutes, followed by the addition of FAAH plasmid DNA (15 μg) (OriGene Cat. No. TC119221, Genbank Accession No. NM_001441.1, 0.67 ug/uL) and a further incubation of 15 minutes at room temperature. The resulting solution was added into one dish of 30-40% confluent COS-7 cells in a drop-wise manner. The COS-7 cell dish was subsequently incubated for 48 hours. The cells are then harvested.
Harvest procedure: Media was aspirated from the dishes and the cells rinsed with 10 mL PBS. The PBS was removed and 3 mL of PBS added to the dish. The dish was scraped to resuspend the cells, and the subsequent cell suspension collected into a 15 mL conical tube. The cells were pelleted by centrifugation at 1200 rpm for 5 minutes in a bench top centrifuge. PBS was removed and the cell pellet snap frozen in liquid nitrogen and stored at −80° C.
COS-7 cells—FAAH purification: • (1) Fractionation: Frozen cell pellets from transient transfections were thawed on ice and resuspended in 12.5 mM Hepes pH 8.0, 100 mM NaCl, 1 mM EDTA (10 mL/0.2 g cell pellet). The pellets were dounce homogenized and then sonicated to produce cell extract. The cell extract was subsequently centrifuged at 1000 g to remove cellular debris. The pellet was discarded and the supernatant centrifuged at 13,000 g for 20 minutes. The pellet contained membrane bound FAAH. The supernatant was discarded and the pellet resolubilized. • (2) Re-solubilization: The fraction of interest, (13,000 g, membrane fraction) was re-suspended in 2.3 mL re-suspension buffer (20 mM Hepes pH 7.8, 10% v/v Glycerol, 1 mM EDTA, 1% Triton X-100) and the sample incubated on ice for 1 hour and then centrifuged to remove any particulate matter. The supernatant containing solubilized human FAAH was aliquoted and snap frozen in liquid nitrogen and stored at 80° C. until use. • (3) Characterization: Protein Concentration determined by Bradford assay. • SDS gel and Western blot to confirm presence of FAAH • FAAH activity assay • Km determination—96-well assay • Linear dependence—96-well assay • Standard compound Ki determination—384-well assay
Human FAAH assay; Experimental Protocol: A 0.1 mg/mL Human FAAH solution was made up in FAAH reaction buffer, and 24 ul pipeted into a 384 well plate. To this was added 1 μL of a 3 fold serially diluted inhibitor from a DMSO stock solution. The FAAH solution and inhibitor were incubated for 30 minutes at room temperature. The FAAH reaction was initiated by the addition of 25 μL of 40 μM AMC Arachidonoyl Amide in FAAH reaction buffer, yielding a final reaction human FAAH preparation concentration of 0.05 mg/ml and AMC-Arachidonoyl substrate concentration of 20 μM, reaction volume 50 μL. The reaction was allowed to proceed for 4 hours at room temperature. The reaction was stopped by the addition of 25 μL 12 μM a-ketoheterocycle (Cayman Chemicals, catalogue #10435). The microtiter plate was read in the envision plate reader.
The raw fluorescence was plotted on the y axis and the inhibitor concentration on the x axis to give a dose response inhibition curve. The data was fitted to a single site competitive inhibition equation, fixing the Km for the human enzyme to 12 μM and 9 μM respectively.

Structure (SMILES) | Ki [nM]
BrC1=NOC2(CCCCC2)C1 [III-1] | ≤ 100
CC(C)(C)[C@H]1CC[C@]2(CC1)CC(Br)=NO2 [III-2a] | 100 to 1000
CC(C)(C)[C@H]1CC[C@@]2(CC1)CC(Br)=NO2 [III-2b] | 100 to 1000
BrC1=NOC2(CCC3(CC2)OCCO3)C1 [III-4] | ≥ 1000
CC(C)(C)OC(=O)N1CCC2(CC1)CC(Br)=NO2 [III-9] | ≤ 100
CC(C)(C)OC(=O)N1CCC[C@@]2(CC(Br)=NO2)C1 [III-10a] | ≥ 1000
CC(C)(C)OC(=O)N1CCC[C@]2(CC(Br)=NO2)C1 [III-10b] | ≥ 1000
CC(C)(C)OC(=O)N1CC[C@@]2(CC(Br)=NO2)C1 [III-11a] | 100 to 1000
CC(C)(C)OC(=O)N1CC[C@]2(CC(Br)=NO2)C1 [III-11b] | 100 to 1000
CC(C)(C)OC(=O)N1C2CCC1CC1(CC(Br)=NO1)C2 (stereo not drawn) [III-13a] | ≥ 1000
BrC1=NOC2(CCNCC2)C1 [III-14] | ≥ 1000
CC(=O)N1CCC2(CC1)CC(Br)=NO2 [III-15] | ≥ 1000
O=S(=O)(c1ccccc1)N1CCC2(CC1)CC(Br)=NO2 [III-17] | 100 to 1000
BrC1=NOC2(CCN(Cc3ccccc3)CC2)C1 [III-19] | ≤ 100
Clc1ccc(CN2CCC3(CC2)CC(Br)=NO3)cc1 [III-20] | ≤ 100
BrC1=NOC2(CCN(Cc3ccccn3)CC2)C1 [III-22] | 100 to 1000
BrC1=NOC2(CCN(Cc3cccnc3)CC2)C1 [III-23] | 100 to 1000
Cc1ccc(CN2CCC3(CC2)CC(Br)=NO3)cc1 [III-24] | ≤ 100
Clc1cccc(CN2CCC3(CC2)CC(Br)=NO3)c1 [III-27] | ≤ 100

Structure (SMILES) | Ki [nM]
BrC1=NOC2(CCN(CCc3ccccc3)CC2)C1 [III-29] | ≤ 100
BrC1=NOC2(CCN(c3ccccc3)CC2)C1 [III-30] | 100 to 1000
BrC1=NOC2(CCN(c3ccc(Br)cc3)CC2)C1 [III-31] | 100 to 1000
BrC1=NOC2(CCN(CC3CCCCC3)CC2)C1 [III-32] | ≤ 100
CC(C)(C)CN1CCC2(CC1)CC(Br)=NO2 [III-33] | 100 to 1000
COC(=O)N1CCC2(CC1)CC(Br)=NO2 [III-35] | 100 to 1000
O=C(OCC(Cl)(Cl)Cl)N1CCC2(CC1)CC(Br)=NO2 [III-38] | 100 to 1000
BrC1=NOC2CC(OCc3ccccc3)CC12 (stereo not drawn) [III-42] | 100 to 1000
CC(C)(C)OC(=O)N1C[C@@H]2C(Br)=NO[C@@H]2C1 [III-43a] | 100 to 1000
CC(C)(C)OC(=O)N1C[C@@H]2ON=C(Br)[C@@H]2C1 [III-43b] | 100 to 1000
Clc1ccc(CN2CC3ON=C(Br)C3C2)cc1 (stereo not drawn) [III-45] | ≥ 1000
O=C(CCc1ccccc1)N1CCC2(CC1)CC(Oc1cncnc1)=NO2 [III-54] | 100 to 1000
O=C(Nc1ccccc1)N1CCC2(CC1)CC(Oc1cncnc1)=NO2 [III-56] | ≥ 1000
O=C(CCCC(F)(F)F)N1CCC2(CC1)CC(Oc1cncnc1)=NO2 [III-57] | ≥ 1000
CS(=O)(=O)c1ccc(OC2=NOC3(CCN(C(=O)c4ccccc4)CC3)C2)cn1 [III-58] | 100 to 1000
O=C(OCc1ccccc1)N1CCC2(CC1)CC(N1CCCC1)=NO2 [III-59] | ≥ 1000
C[N+]1(C2=NOC3(CCN(C(=O)OCc4ccccc4)CC3)C2)CCCC1 [III-60] | ≥ 1000
CS(=O)(=O)c1ccc(OC2=NO[C@]3(CCc4cc(OC(F)(F)F)ccc43)C2)cn1 [III-68a] | ≤ 100
CS(=O)(=O)c1ccc(OC2=NO[C@@]3(CCc4cc(OC(F)(F)F)ccc43)C2)cn1 [III-68b] | ≤ 100

Second part, the molecule after the results:

Ki [nM] | Structure (SMILES)
≤ 100 | BrC1=NO[C@]2(CC[C@H](c3ccccc3)CC2)C1 [III-3a]
≤ 100 | BrC1=NO[C@]2(CC[C@@H](c3ccccc3)CC2)C1 [III-3b]
≤ 100 | BrC1=NO[C@]2(CC[C@H](COc3ccccc3)CC2)C1 [III-8a]
≤ 100 | BrC1=NO[C@]2(CC[C@@H](COc3ccccc3)CC2)C1 [III-8b]
≤ 100 | CC(C)(C)OC(=O)N1CCC[C@@]2(CC1)CC(Br)=NO2 [III-12a]
≤ 100 | CC(C)(C)OC(=O)N1CCC[C@]2(CC1)CC(Br)=NO2 [III-12b]
≤ 100 | O=C(c1ccccc1)N1CCC2(CC1)CC(Br)=NO2 [III-16]
≤ 100 | O=C(OCc1ccccc1)N1CCC2(CC1)CC(Br)=NO2 [III-18]
≤ 100 | COc1ccc(CN2CCC3(CC2)CC(Br)=NO3)cc1 [III-21]
≤ 100 | Clc1ccc(CN2CCC3(CC2)CC(Br)=NO3)cc1Cl [III-25]
≤ 100 | FC(F)(F)c1ccc(CN2CCC3(CC2)CC(Br)=NO3)cc1 [III-26]
≤ 100 | BrC1=NOC2(CCN(CCCc3ccccc3)CC2)C1 [III-28]
≤ 100 | O=C(CCc1ccccc1)N1CCC2(CC1)CC(Br)=NO2 [III-34]
≤ 100 | CC(C)COC(=O)N1CCC2(CC1)CC(Br)=NO2 [III-36]
≤ 100 | O=C(Oc1ccccc1)N1CCC2(CC1)CC(Br)=NO2 [III-37]
≤ 100 | COc1ccc(COC(=O)N2CCC3(CC2)CC(Br)=NO3)cc1 [III-39]
≤ 100 | O=C(OCc1ccc(Cl)cc1)N1CCC2(CC1)CC(Br)=NO2 [III-40]

Ki [nM] | Structure (SMILES)
≤ 100 | O=C(OCc1ccccc1)N1CC2ON=C(Br)C2C1 (stereo not drawn) [III-44]
≤ 100 | O=C(OCc1ccccc1)N1CCC2(CC1)CC(Oc1cccnc1)=NO2 [III-46]
≤ 100 | CC(C)(C)OC(=O)N1CCC2(CC1)CC(Cl)=NO2 [III-47]
≤ 100 | ClC1=NOC2(CCN(Cc3ccc(Cl)cc3)CC2)C1 [III-48]
≤ 100 | C#Cc1ccc(CN2CCC3(CC2)CC(Br)=NO3)cc1 [III-49]
≤ 100 | C#Cc1ccc(CN2CCC3(CC2)CC(Oc2cccnc2)=NO3)cc1 [III-50]
≤ 100 | Clc1ccc(CN2CCC3(CC2)CC(Oc2cccnc2)=NO3)cc1 [III-51]
≤ 100 | Clc1ccc(CN2CCC3(CC2)CC(Oc2cncnc2)=NO3)cc1 [III-52]
≤ 100 | O=C(c1ccc(Cl)cc1)N1CCC2(CC1)CC(Oc1cncnc1)=NO2 [III-55]
≤ 100 | BrC1=NO[C@]2(CCCc3cc(Oc4ccccc4)ccc32)C1 [III-62a]
≤ 100 | BrC1=NO[C@@]2(CCCc3cc(Oc4ccccc4)ccc32)C1 [III-62b]
≤ 100 | BrC1=NO[C@]2(CCc3cc(Oc4ccccc4)ccc32)C1 [III-63a]
≤ 100 | BrC1=NO[C@@]2(CCc3cc(Oc4ccccc4)ccc32)C1 [III-63b]
≤ 100 | FC(F)(F)Oc1ccc2c(c1)CC[C@@]21CC(Br)=NO1 [III-66a]
≤ 100 | FC(F)(F)Oc1ccc2c(c1)CC[C@]21CC(Br)=NO1 [III-66b]
≤ 100 | CSc1ccc(OC2=NO[C@]3(CCc4cc(OC(F)(F)F)ccc43)C2)cn1 [III-67a]
≤ 100 | CSc1ccc(OC2=NO[C@@]3(CCc4cc(OC(F)(F)F)ccc43)C2)cn1 [III-67b]
